From US20050090433A1 (priority 2002, published 2005)
≈ marks a conversion by molar mass, not a printed value. Like-named read-outs stand apart in the source and are kept apart here.

What was measured:
[1] = system: skin and soft tissue infections (SSTI); test: Phase II trial in deep skin and soft tissue infections: clinical response; format: in vivo, human; settings: exploratory subanalysis
Description: (§1) This randomized, controlled study evaluated the safety and efficacy of two dose regimens of dalbavancin.
There were 62 patients randomized into the study, all received at least one dose of study medication. Four study populations were evaluated for safety and efficacy and were defined as follows: The intent-to-treat (I) population included all patients who received at least one dose of study drug (all randomized study subjects).
The effectiveness of the three treatment regimens was determined by assessing the patients' clinical response and the documented or presumed microbiological responses. The primary efficacy endpoint was clinical response at the follow-up visit for the clinically evaluable population. Clinical response, for both EOT and FU visits, was categorized as success (cure or improvement) or failure (including indeterminate results). Patients classified as successes must not have received additional systemic antibacterial treatment for their infection. Failure was defined as persistence of one or more local or systemic signs and symptoms of SSTI such that treatment with new or additional systemic antibacterial agents was required for the SSTI.

[2] = system: methicillin-resistant S. aureus (MRSA); format: in vivo
Description: The effectiveness of the three treatment regimens was determined by assessing the patients' clinical response and the documented or presumed microbiological responses. The primary efficacy endpoint was clinical response at the follow-up visit for the clinically evaluable population. Clinical response, for both EOT and FU visits, was categorized as success (cure or improvement) or failure (including indeterminate results). […] Failure was defined as persistence of one or more local or systemic signs and symptoms of SSTI such that treatment with new or additional systemic antibacterial agents was required for the SSTI.
Microbiological outcome, a secondary efficacy variable, was assessed in the subpopulation of patients who had microbiologically documented SSTI (i.e., at least one identified baseline pathogen). A microbiologic response was assessed for each Gram-positive pathogen identified at baseline (i.e., eradication, presumed eradication, persistence, presumed persistence). For patients for whom follow-up cultures were not performed, the microbiologic responses for baseline pathogens were presumed on the basis of the clinical response. […] At both the EOT and FU visits, colonization and superinfection were assessed. […]

[3] = SSTI trial: adverse events; format: in vivo, human
Description: as §1
Each patient who received at least one dose of study drug (ITT population) was evaluated for drug safety through monitoring of adverse events (AE), including abnormal clinical laboratory test results and vital signs. AE were rated by the investigator as to their severity (mild, moderate, severe, life-threatening), and by the relationship to the study drug (not related, unlikely related, possibly related, or probably related).

[4] = system: S. aureus; test: Dalbavancin MIC, baseline isolates of SSTI trial; format: cell-based; settings: MITT
[5] = system: Group B streptococcus; test: Dalbavancin MIC, baseline isolates of SSTI trial; format: cell-based
[6] = system: Streptococcus pyogenes; test: Dalbavancin MIC, baseline isolates of SSTI trial; format: cell-based; settings: read-out: Dalbavancin MIC, Streptococcus pyogenes, MITT, two-dose group
[7] = system: Gram-positive isolates, including MRSA; test: Dalbavancin MIC, Gram-positive isolates of SSTI trial; format: cell-based; settings: Staphylococcus aureus, read-out: MICs against Gram-positive isolates, including MRSA
[8] = system: bacteria; test: Minimum bactericidal concentration; format: cell-based; settings: 24 h, kill at least 99% of bacteria over 24 hour in vitro; in plasma
Source text: The amount of dalbavancin administered may be any of the dosages disclosed herein.

[9] = Pharmacokinetics and renal excretion in healthy subjects; settings: human, in vivo, iv, 1000 mg; for half-life: healthy subjects, single 1000 mg IV
Description: Blood samples were drawn into heparinized tubes and centrifuged. Plasma was separated and stored frozen at −20° C. until time of assay. Plasma and urine samples were assayed for dalbavancin using validated LC/MS/MS methods. […] The peak concentration (Cmax) values were obtained directly from the observed data. The area under the plasma concentration-time curve (AUC) was calculated using the linear trapezoidal rule. Clearance (CL) was computed as dose/AUC. The elimination half life (t1/2) was estimated by linear regression of the log-linear portion of the log concentration versus time curve. Estimates of the volume of distribution (Vz) was calculated using the regression parameters, while the volume of distribution at steady state (Vss) was calculated from the area under the first moment curve (AUMC) multiplied by the dose and divided by AUC. The cumulative amount of dalbavancin excreted in urine was determined as the integrand of the urine excretion rate (AURC). CLR or renal clearance, was calculated as the ratio: CLR=AURC/AUC.

[10] = human, in vivo
Description: (§2) Adverse events were recorded and assessed for severity and relationship to study drug. Laboratory data (chemistry panel, CBC with differential, urinalysis) were collected and assessed for changes from baseline and out-of-range values. ECG, physical examination, and vital signs were obtained, and changes from baseline were assessed.

[11] = target: T1, Human albumin (Homo sapiens, UniProt P02768); settings: pH 7.4
Description: (§3) Integrated heat effects, after correction for heats of dilution, were analyzed by non-linear regression using a simple single-site binding model with the standard Microcal ORIGIN software package. Raw data (μcal/sec) for each injection were integrated to give the total heat effect per addition, then divided by amount of injectant to give kcal/mole of injectant. The same integration was applied for control dilution effects, and this was subtracted from the actual titration data. This provided a differential of the binding curve in which the extent of binding is proportional to the total heat liberated (or absorbed). This was then analyzed by non-linear regression methods in terms of various standard binding models.

[12] = system: human α-glycoprotein; settings: pH 7.4
Description: as §3

[13] = rat, in vivo
Description: (§4) Excreta and more than 40 different tissues were collected through 70 days post-administration, and the tissue distribution and pharmacokinetics of drug-derived radioactivity were determined.
Following dose administration, urine and feces were collected at 24 hour intervals to 14, 36, and 70 days after the dose (3 rats/final collection time). Water and methanol cage washes were also collected. Carcasses were analyzed at the end of the collection period. AU samples were analyzed for total radioactivity content by liquid scintillation counting (LSC).

[14] = pH 7.4
[15] = Safety assessments in healthy subjects; settings: single 1000 mg IV
Description: as §2

[16] = Rat quantitative tissue distribution (QTD) study; settings: male rats, single IV infusion 20 mg/kg
Description: as §4
Rats (3 per time-point) were euthanized at 12, 24, 48, 72, 96, 120, 144, 168, 336, 840, 1176 and 1680 hours post dose for collection of blood, plasma, and tissues (including carcass). All samples were analyzed by LSC.
As part of the QTD studies, bile samples were collected from bile duct cannulated rats (4 animals) through 384 h (16 days) post-dose.

[17] = target: T1, Human albumin; test: Protein binding by isothermal titration microcalorimetry; settings: Apparent binding affinity Ka, Human albumin, pH 7.4, ± SD of fit
Description: as §3

[18] = target: Rat albumin (Rattus norvegicus, UniProt P02770); test: as above; settings: Apparent binding affinity Ka, pH 7.4, ± SD of fit
Description: as §3

[19] = target: Dog albumin (Canis lupus familiaris, UniProt P49822); test: as above; settings: Apparent binding affinity Ka, pH 7.4, ± SD of fit
Description: as §3

[20] = target: Bovine albumin (Bos taurus, UniProt P02769); test: as above
Description: as §3

[21] = two-dose 1000 mg IV day 1, 500 mg day 8

T1 sequence (P02768 25-609): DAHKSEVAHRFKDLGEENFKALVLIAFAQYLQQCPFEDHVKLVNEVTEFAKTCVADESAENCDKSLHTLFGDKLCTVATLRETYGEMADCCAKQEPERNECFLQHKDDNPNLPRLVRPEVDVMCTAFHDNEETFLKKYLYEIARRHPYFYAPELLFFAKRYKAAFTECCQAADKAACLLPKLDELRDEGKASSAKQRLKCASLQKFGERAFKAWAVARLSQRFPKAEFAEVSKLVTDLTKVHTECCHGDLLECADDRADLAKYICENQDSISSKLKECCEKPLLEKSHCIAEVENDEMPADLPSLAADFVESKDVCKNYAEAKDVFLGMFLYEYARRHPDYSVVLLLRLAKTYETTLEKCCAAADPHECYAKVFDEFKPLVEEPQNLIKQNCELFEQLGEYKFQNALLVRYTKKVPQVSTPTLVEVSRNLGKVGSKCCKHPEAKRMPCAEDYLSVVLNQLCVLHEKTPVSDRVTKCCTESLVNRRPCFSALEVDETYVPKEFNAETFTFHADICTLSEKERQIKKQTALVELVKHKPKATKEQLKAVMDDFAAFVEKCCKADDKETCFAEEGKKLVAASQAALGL
Dog albumin, sequence (P49822 25-608): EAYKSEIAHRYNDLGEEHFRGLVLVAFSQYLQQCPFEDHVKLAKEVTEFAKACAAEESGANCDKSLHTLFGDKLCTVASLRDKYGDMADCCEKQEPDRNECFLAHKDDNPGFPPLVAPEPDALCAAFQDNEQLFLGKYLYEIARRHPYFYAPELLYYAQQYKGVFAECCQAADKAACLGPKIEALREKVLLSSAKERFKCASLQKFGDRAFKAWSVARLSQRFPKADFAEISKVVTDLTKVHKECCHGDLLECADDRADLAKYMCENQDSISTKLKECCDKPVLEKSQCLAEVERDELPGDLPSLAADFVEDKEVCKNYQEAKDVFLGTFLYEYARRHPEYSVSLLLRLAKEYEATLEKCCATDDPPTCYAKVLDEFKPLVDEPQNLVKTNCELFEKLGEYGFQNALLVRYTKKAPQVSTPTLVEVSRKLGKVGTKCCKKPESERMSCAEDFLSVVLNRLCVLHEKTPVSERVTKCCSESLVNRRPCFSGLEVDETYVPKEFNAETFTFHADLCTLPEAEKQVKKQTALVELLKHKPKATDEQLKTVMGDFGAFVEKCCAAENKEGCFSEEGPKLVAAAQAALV
Rat albumin, sequence (P02770 25-608): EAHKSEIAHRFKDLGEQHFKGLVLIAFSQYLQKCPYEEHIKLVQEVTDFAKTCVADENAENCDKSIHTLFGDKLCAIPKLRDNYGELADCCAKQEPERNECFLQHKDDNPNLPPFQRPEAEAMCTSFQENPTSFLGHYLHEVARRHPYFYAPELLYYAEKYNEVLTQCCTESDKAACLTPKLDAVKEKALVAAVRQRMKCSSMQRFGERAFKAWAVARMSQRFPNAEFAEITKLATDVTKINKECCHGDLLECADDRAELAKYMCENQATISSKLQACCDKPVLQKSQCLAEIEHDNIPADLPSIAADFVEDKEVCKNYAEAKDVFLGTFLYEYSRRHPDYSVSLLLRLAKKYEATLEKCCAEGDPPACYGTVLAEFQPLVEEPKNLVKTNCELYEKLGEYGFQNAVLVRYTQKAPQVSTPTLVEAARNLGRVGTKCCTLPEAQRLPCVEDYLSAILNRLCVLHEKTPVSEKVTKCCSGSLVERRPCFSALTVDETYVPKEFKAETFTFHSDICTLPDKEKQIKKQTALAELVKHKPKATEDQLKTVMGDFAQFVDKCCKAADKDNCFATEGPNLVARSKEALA
Bovine albumin, sequence (P02769 25-607): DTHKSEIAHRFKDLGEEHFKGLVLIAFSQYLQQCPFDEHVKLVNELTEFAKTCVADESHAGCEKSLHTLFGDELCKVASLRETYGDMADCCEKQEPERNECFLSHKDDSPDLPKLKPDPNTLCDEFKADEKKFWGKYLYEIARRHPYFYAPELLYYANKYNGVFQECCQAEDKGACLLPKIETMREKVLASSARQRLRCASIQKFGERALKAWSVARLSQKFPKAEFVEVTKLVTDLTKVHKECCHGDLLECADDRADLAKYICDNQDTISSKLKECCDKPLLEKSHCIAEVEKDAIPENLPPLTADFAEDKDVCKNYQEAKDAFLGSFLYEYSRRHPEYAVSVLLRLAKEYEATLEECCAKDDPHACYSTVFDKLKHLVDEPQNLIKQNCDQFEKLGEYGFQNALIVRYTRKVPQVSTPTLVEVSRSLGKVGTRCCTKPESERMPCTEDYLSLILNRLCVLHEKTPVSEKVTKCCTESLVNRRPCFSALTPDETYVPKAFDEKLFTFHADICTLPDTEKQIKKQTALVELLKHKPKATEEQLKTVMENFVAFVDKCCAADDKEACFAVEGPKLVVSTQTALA

CN[C@H]1C(=O)N[C@@H]2Cc3ccc(cc3)Oc3cc4cc(c3O[C@@H]3O[C@H](C(=O)O)[C@@H](O)[C@H](O)[C@H]3NC(=O)CCCCCCCCC(C)C)Oc3ccc(cc3Cl)[C@@H](O)[C@@H]3NC(=O)[C@H](NC(=O)[C@@H]4NC(=O)[C@@H](NC2=O)c2cc(cc(O)c2Cl)Oc2cc1ccc2O)c1ccc(O)c(c1)-c1c(O[C@H]2O[C@H](CO)[C@@H](O)[C@H](O)[C@@H]2O)cc(O)cc1[C@@H](C(=O)NCCCN(C)C)NC3=O [Dalbavancin]
Clinical success rate, patients with deep or complicated SSTI at baseline ([1]; single-dose 1100 mg IV day 1): 58.3% | Clinical success rate, patients with deep or complicated SSTI at baseline [1, 21]: 93.8% | Clinical success rate at FU, MITT patients with MRSA ([2]; single-dose 1100 mg IV day 1): 50% | Clinical success rate at FU, MITT patients with MRSA [2, 21]: 80% | AE leading to discontinuation of study medication ([3]; human, in vivo): 0% | ≧1 AE ([3]; human, in vivo): 95% | ≧1 severe AE ([3]; human, in vivo): 2 (10%) | Hepatotoxicity or nephrotoxicity ([3]; in vivo): no evidence that dalbavancin induces any degree of clinically significant hepatotoxicity or nephrotoxicity | Serious adverse events related to study drug ([3]; in vivo): no serious adverse events related to study drug treatment | Tolerability ([3]; in vivo): well tolerated | ≧1 AE possibly/probably related to treatment ([3]; single-dose (N = 20)): 55% | ≧1 AE possibly/probably related to treatment ([3]; two-dose (N = 21)): 48% | Dalbavancin MIC range, All S. aureus ([4]; standard of care group): 10 (0.016-0.25) mg/L | Dalbavancin MIC, All S. aureus ([4]; two-dose group): 11 (0.12) mg/L | Dalbavancin MIC, Group B streptococcus ([5]; MITT, standard of care group): 2 (0.016) mg/L | MIC ([5]; Streptococcus, read-out: Dalbavancin MIC, Group B streptococcus, MITT, two-dose group): 0.016 µg/mL (≈ 8.81 nM) | MIC [6]: 0.016 µg/mL (≈ 8.81 nM) | MIC [7]: 0.016 to 0.25 µg/mL (≈ 8.81 to 138 nM) | MBC [8]: 4 to 10 µg/mL (≈ 2200 to 5500 nM) | AUC ([9]; both sexes): 23800 µg·h/mL | clearance ([9]; both sexes): 0.718 mL/min | Vd ([9]; both sexes, Apparent volume of distribution): > 10 L | CL renal ([9]; both sexes, CLR): 0.3 mL/min | Vd ([9]; both sexes, VSS): 11.5 L | Vd ([9]; both sexes, VZ): 16 L | half-life ([9]; both sexes): 9 to 12 days | half-life ([9]; both sexes, mean): 10.7 days | CL ([9]; both): 0.0431 L/h | CLR ([9]; both): 0.0181 L/h | Eosinophilia, AE possibly related to study medication [10]: 500 µL⁻¹ | Intensity of reported AEs [10]: all of mild intensity | Calculated percent Binding, Human albumin ([11]; 1 μM): 98.8% | Calculated percent Binding, Human albumin ([11]; 10 μM): 98.8% | Calculated percent Binding, Human albumin ([11]; 100 μM): 98.7% | Calculated percent Binding, Human albumin ([11]; 165 μM): 98.6% | Calculated percent Binding, Human albumin ([11]; 250 μM): 98.5% | Calculated percent Binding, Human albumin ([11]; 500 μM): 98.0% | Calculated percent Binding, Human α-glycoprotein ([12]; 1 μM): 73.0% | Calculated percent Binding, Human α-glycoprotein ([12]; 10 μM): 68.2% | Calculated percent Binding, Human α-glycoprotein ([12]; 100 μM): 26.2% | Calculated percent Binding, Human α-glycoprotein ([12]; 165 μM): 16.9% | Calculated percent Binding, Human α-glycoprotein ([12]; 250 μM): 11.4% | Calculated percent Binding, Human α-glycoprotein ([12]; 500 μM): 5.9% | Dose remaining in the carcass ([13]; male, Sprague-Dawley, 1680 h): 4.5% | Radioactivity administered eliminated in urine and feces within the first week ([13]; iv, 20 mg/kg): Approximately half | Share of excreted radioactivity eliminated in feces ([13]; iv, 20 mg/kg): ⅓ | Share of excreted radioactivity eliminated in urine ([13]; iv, 20 mg/kg): ⅔ | Solubility in the presence of HSA [14]: significantly increased | Deaths or serious adverse events [15]: No subject deaths or serious adverse events | Skin concentrations of drug-derived radioactivity relative to plasma [16]: as high as or higher than in plasma | Kd ([17]; 25° C.): 7.41 µM | Kd ([17]; 37° C.): 7.52 µM | Kd ([18]; 25° C.): 3.23 µM | Kd ([18]; 37° C.): 3.57 µM | Kd ([19]; 25° C.): 16.1 µM | Kd ([19]; 37° C.): 20 µM | Kd [20]: 7.25 µM
